The record followed here is patent US20230131899A1, “INHIBITORS OF MICROBIALLY INDUCED AMYLOID” (Axial Therapeutics, Inc., priority 2020, published 2023).

This experiment relates to CsgA gene expression (csgBAC promoter-GFP reporter) in E. coli UTI89. Kind of experiment: In vitro live cell fluorescent reporter assay of CsgA transcription (Reporter Assay). Particulars: Escherichia coli. It counts as cell-based. In short, it runs like this: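 Compounds at 0.14–100 μM (1% DMSO final) incubated 20 h at 27 °C in YESCA broth with UTI89 carrying a single-copy GFP reporter under the csgBAC intergenic promoter region, inoculum OD600 0.003. Fluorescence normalized to vehicle wells gave IC50 and 50%-of-vehicle concentration; OD600 reduction >10% flagged growth impact.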
(In a reporter assay the amount or activity of a reporter protein is the signal.)

The mark [1] stands for this setting: read-out: Reporter Assay Abs IC50 (μM), median Abs IC50 in the CsgA reporter assay, N/A = maximum expression reduction is <50% of control.
The mark [2] stands for this setting: read-out: Reporter Assay Abs IC50, activity range, class symbol.
Setting [3] is: read-out: Reporter Assay Abs IC50 (activity range), median Abs IC50 in the CsgA reporter assay, class symbol.

Like-named read-outs stand apart in the source and are kept apart here.

One may read the IC50 as the concentration at which inhibition is half-maximal. In the case of `O=C(O)C1CN(CCC2CCCCC2)c2c(-c3cccc(C(F)(F)F)c3)c(Cc3cccc4ccccc34)c(Cl)c(=O)n21` (stereo not drawn) [Compound 207, 6-chloro-1-(2-cyclohexylethyl)-7-(naphthalen-1-ylmethyl)-5-oxo-8-(3-(trifluoromethyl)phenyl)-1,2,3,5-tetrahydroimidazo[1,2-a]pyridine-3-carboxylic acid], the IC50 is 0.7 µM under setting [1] and below 1.3 µM under setting [2].

As for `O=C(O)C1CN(Cc2ccccc2)c2c(-c3cccc(C(F)(F)F)c3)c(Cc3cccc4ccccc34)c(F)c(=O)n21` (stereo not drawn) [Compound 194, 1-benzyl-6-fluoro-7-(naphthalen-1-ylmethyl)-5-oxo-8-(3-(trifluoromethyl)phenyl)-1,2,3,5-tetrahydroimidazo[1,2-a]pyridine-3-carboxylic acid], the IC50 runs as follows: under setting [1], 1.4 µM; under setting [2], 1.3 to 4.5 µM.

For the compound `CC(C)N1CC(C(=O)O)n2c(c(-c3cccc(C(F)(F)F)c3)c(Cc3cccc4ccccc34)c(C(N)=O)c2=O)S1(=O)=O` (stereo not drawn) [Compound 175, 7-carbamoyl-2-isopropyl-8-(naphthalen-1-ylmethyl)-6-oxo-9-(3-(trifluoromethyl)phenyl)-3,4-dihydro-2H,6H-pyrido[1,2-e][1,2,5]thiadiazine-4-carboxylic acid 1,1-dioxide], the IC50 was 1.4 µM under setting [1] and 1.3 to 4.5 µM under setting [2].

Regarding `CCCN1CC(C(=O)O)n2c(c(-c3cccc(C(F)(F)F)c3)c(Cc3cccc4ccccc34)c(NC(=O)CC)c2=O)S1(=O)=O` (stereo not drawn) [Compound 153, 8-(naphthalen-1-ylmethyl)-6-oxo-7-propionamido-2-propyl-9-(3-(trifluoromethyl)phenyl)-3,4-dihydro-2H,6H-pyrido[1,2-e][1,2,5]thiadiazine-4-carboxylic acid 1,1-dioxide], the half-inhibitory concentration (IC50) reads like this: under setting [1], 16.6 µM; under setting [2], above 10 µM.

In the case of `O=C(O)C1CN(C[C@H](O)CO)S(=O)(=O)c2c(-c3cccc(C(F)(F)F)c3)c(Cc3cccc4ccccc34)cc(=O)n21` (stereo partly drawn) [Compound 065a, 2-((S)-2,3-dihydroxypropyl)-8-(naphthalen-1-ylmethyl)-6-oxo-9-(3-(trifluoromethyl)phenyl)-3,4-dihydro-2H,6H-pyrido[1,2-e][1,2,5]thiadiazine-4-carboxylic acid 1,1-dioxide], the IC50 reads like this: under setting [3], above 10 µM; under setting [1], 24.5 µM.

Turning to `O=C(O)C1CN(Cc2ccncc2)c2c(-c3cccc(C(F)(F)F)c3)c(Cc3cccc4ccccc34)c(Cl)c(=O)n21` (stereo not drawn) [Compound 174, 6-chloro-7-(naphthalen-1-ylmethyl)-5-oxo-1-(pyridin-4-ylmethyl)-8-(3-(trifluoromethyl)phenyl)-1,2,3,5-tetrahydroimidazo[1,2-a]pyridine-3-carboxylic acid], the IC50 by setting is: under setting [1], 4.4 µM; under setting [2], 1.3 to 4.5 µM.

As to `CCCCCN1CC(C(=O)O)n2c(c(-c3cccc(C(F)(F)F)c3)c(Cc3cccc4ccccc34)cc2=O)S1(=O)=O` (single isomer, unassigned) [Compound 025a, 8-(naphthalen-1-ylmethyl)-6-oxo-2-pentyl-9-(3-(trifluoromethyl)phenyl)-3,4-dihydro-2H,6H-pyrido[1,2-e][1,2,5]thiadiazine-4-carboxylic acid 1,1-dioxide], the 50% inhibitory concentration (IC50) is 1.3 to 4.5 µM under setting [3] and 2 µM under setting [1].

As to `O=C(O)C1n2c(c(-c3cccc(C(F)(F)F)c3)c(Cc3cccc4ccccc34)nc2=O)SC12CCCC2` (stereo not drawn) [Compound 053, 7′-(naphthalen-1-ylmethyl)-5′-oxo-8′-(3-(trifluoromethyl)phenyl)-3′H,5′H-spiro[cyclopentane-1,2′-thiazolo[3,2-c]pyrimidine]-3′-carboxylic acid], the IC50 is above 10 µM under setting [3] and 16.3 µM under setting [1].

With `Cn1c(=O)c2c(nc(CCCCCN3CC(C(=O)O)n4c(c(-c5cccc(C(F)(F)F)c5)c(Cc5cccc6ccccc56)cc4=O)S3(=O)=O)n2C)n(C)c1=O` (stereo not drawn) [Compound 045, 8-(naphthalen-1-ylmethyl)-6-oxo-9-(3-(trifluoromethyl)phenyl)-2-(5-(1,3,7-trimethyl-2,6-dioxo-2,3,6,7-tetrahydro-1H-purin-8-yl)pentyl)-3,4-dihydro-2H,6H-pyrido[1,2-e][1,2,5]thiadiazine-4-carboxylic acid 1,1-dioxide], the IC50 runs as follows: under setting [3], 1.3 to 4.5 µM; under setting [1], 1.3 µM.

On to `CCCN1CC(C(=O)O)n2c(c(-c3cccc(C(F)(F)F)c3)c(Cc3cccc4ccccc34)c(Cl)c2=O)S1(=O)=O` (stereo not drawn) [Compound 142, 7-chloro-8-(naphthalen-1-ylmethyl)-6-oxo-2-propyl-9-(3-(trifluoromethyl)phenyl)-3,4-dihydro-2H,6H-pyrido[1,2-e][1,2,5]thiadiazine-4-carboxylic acid 1,1-dioxide], for which the IC50 reads like this: under setting [1], 2.3 µM; under setting [2], 1.3 to 4.5 µM.

In the case of `O=C(O)C1CN(C[C@H](O)[C@@H](O)[C@H](O)[C@H](O)CO)S(=O)(=O)c2c(-c3cccc(C(F)(F)F)c3)c(Cc3cccc4ccccc34)cc(=O)n21` (mixture of isomers) [Compound 066, 8-(naphthalen-1-ylmethyl)-6-oxo-2-((2S,3R,4R,5R)-2,3,4,5,6-pentahydroxyhexyl)-9-(3-(trifluoromethyl)phenyl)-3,4-dihydro-2H,6H-pyrido[1,2-e][1,2,5]thiadiazine-4-carboxylic acid 1,1-dioxide], the IC50 was above 10 µM under setting [3] and 40.2 µM under setting [1].

For `CCc1c(Cc2cccc3ccccc23)c(-c2cccc(C(F)(F)F)c2)c2n(c1=O)C(C(=O)O)CN2Cc1ccc(OC)cc1` (stereo not drawn) [Compound 161, 6-ethyl-1-(4-methoxybenzyl)-7-(naphthalen-1-ylmethyl)-5-oxo-8-(3-(trifluoromethyl)phenyl)-1,2,3,5-tetrahydroimidazo[1,2-a]pyridine-3-carboxylic acid], the IC50 under setting [1] turned out to be 2.1 µM and the IC50 under setting [2] fell in the range of 1.3 to 4.5 µM.

Turning to `Cn1c(=O)c2c(nc(CCCCCCN3CC(C(=O)O)n4c(c(-c5cccc(C(F)(F)F)c5)c(Cc5cccc6ccccc56)cc4=O)S3(=O)=O)n2C)n(C)c1=O` (stereo not drawn) [Compound 046, 8-(naphthalen-1-ylmethyl)-6-oxo-9-(3-(trifluoromethyl)phenyl)-2-(6-(1,3,7-trimethyl-2,6-dioxo-2,3,6,7-tetrahydro-1H-purin-8-yl)hexyl)-3,4-dihydro-2H,6H-pyrido[1,2-e][1,2,5]thiadiazine-4-carboxylic acid 1,1-dioxide], the IC50 reads like this: under setting [3], 1.3 to 4.5 µM; under setting [1], 1.6 µM.

Regarding `O=C(O)C1CN(Cc2ccccc2)c2c(-c3cccc(C(F)(F)F)c3)c(C(F)(F)c3cccc4ccccc34)c(Br)c(=O)n21` (stereo not drawn) [Compound 155, 1-benzyl-6-bromo-7-(difluoro(naphthalen-1-yl)methyl)-5-oxo-8-(3-(trifluoromethyl)phenyl)-1,2,3,5-tetrahydroimidazo[1,2-a]pyridine-3-carboxylic acid], the concentration for half-maximal inhibition (IC50) is 3 µM under setting [1] and 1.3 to 4.5 µM under setting [2].

`CNC(=O)CCCCN1CC(C(=O)O)n2c(c(-c3cccc(C(F)(F)F)c3)c(Cc3cccc4ccccc34)cc2=O)S1(=O)=O` (stereo not drawn) [Compound 038, 2-(5-(methylamino)-5-oxopentyl)-8-(naphthalen-1-ylmethyl)-6-oxo-9-(3-(trifluoromethyl)phenyl)-3,4-dihydro-2H,6H-pyrido[1,2-e][1,2,5]thiadiazine-4-carboxylic acid 1,1-dioxide]: the IC50 by setting is: under setting [3], above 10 µM; under setting [1], 24 µM.
